Measured values: ChEMBL document CHEMBL3885861, “Open TG-GATES”

Species on record: Rattus norvegicus
Experiment: Open TG-GATES - Regimen: Daily Repeat
Format: toxicity, organism-based, Sprague-Dawley
Set-up: regimen Daily Repeat, gender Male, age 6 weeks
Conditions: in vivo, po, route gavage; for APTT / Bas / Eos / Fbg / Hb / Ht / Lym / MCH / MCHC / MCV / Mono / Neu / PT / Plat / RBC / Ret / WBC: tissue Blood; for KIDNEY_L / KIDNEY_R / KIDNEY_TOTAL: tissue Kidney; for LIVER: tissue Liver; for A/G / ALP / ALT / AST / BUN / CRE / Ca / Cl / DBIL / GLC / IP / K / LDH / Na / PL / RALB / TBIL / TC / TG / TP / gamma-GTP: tissue Plasma
[1] = 15 mg/kg, 72 h, dose level Middle, time 3 day
[2] = 15 mg/kg, […], dose level Middle, time 7 day
[3] = 15 mg/kg, […], dose level Middle, time 14 day
[4] = 15 mg/kg, […], dose level Middle, time 28 day
[5] = 45 mg/kg, 72 h, dose level High, time 3 day
[6] = 45 mg/kg, […], dose level High, time 7 day
[7] = 45 mg/kg, […], dose level High, time 14 day
[8] = 45 mg/kg, […], dose level High, time 28 day

## CC(=N)S [THIOACETAMIDE]
[1]
  TERMINAL_BW: 220.4 g
  APTT: 16.6 s
  Bas: 0%
  Eos: 1%
  Fbg: 254.2 mg/dL
  Hb: 14 g/dL
  Ht: 42.5%
  Lym: 84%
  MCH: 20.9 pg
  MCHC: 33.1%
  MCV: 63.2 fL
  Mono: 5.2%
  Neu: 9.6%
  PT: 12.2 s
  Plat: 113 x10_4/uL
  RBC: 672.4 x10_4/ul
  Ret: 5.5%
  WBC: 167.1 x10_2/uL
  KIDNEY_L: 1 g
  KIDNEY_R: 1 g
  KIDNEY_TOTAL: 1.9 g
  LIVER: 11.1 g
  A/G: 2.1
  ALP: 896 IU/L
  ALT: 29.2 IU/L
  AST: 57.2 IU/L
  BUN: 17 mg/dL
  CRE: 0.5 mg/dL
  Ca: 10.5 mg/dL
  Cl: 105.8 meq/L
  DBIL: 0.02 mg/dL
  GLC: 176.2 mg/dL
  IP: 7.5 mg/dL
  K: 5 meq/L
  LDH: 92.8 IU/L
  Na: 137.6 meq/L
  PL: 159.4 mg/dL
  RALB: 3.9 g/dL
  TBIL: 0.3 mg/dL
  TC: 76.4 mg/dL
  TG: 148 mg/dL
  TP: 5.8 g/dL
  gamma-GTP: 2.4 IU/L
[2]
  TERMINAL_BW: 248.4 g
  APTT: 16.4 s
  Bas: 0%
  Eos: 1%
  Fbg: 247.2 mg/dL
  Hb: 13.9 g/dL
  Ht: 42.1%
  Lym: 82.8%
  MCH: 20.8 pg
  MCHC: 33%
  MCV: 63 fL
  Mono: 5.4%
  Neu: 11.2%
  PT: 12.7 s
  Plat: 108.4 x10_4/uL
  RBC: 668.4 x10_4/ul
  Ret: 4.5%
  WBC: 170.4 x10_2/uL
  KIDNEY_L: 1.1 g
  KIDNEY_R: 1.1 g
  KIDNEY_TOTAL: 2.2 g
  LIVER: 12.8 g
  A/G: 2
  ALP: 926.6 IU/L
  ALT: 29.4 IU/L
  AST: 54.2 IU/L
  BUN: 19 mg/dL
  CRE: 0.6 mg/dL
  Ca: 10.5 mg/dL
  Cl: 105.6 meq/L
  DBIL: 0.016 mg/dL
  GLC: 172.4 mg/dL
  IP: 7.9 mg/dL
  K: 5.1 meq/L
  LDH: 97.4 IU/L
  Na: 136.2 meq/L
  PL: 152.6 mg/dL
  RALB: 4 g/dL
  TBIL: 0.3 mg/dL
  TC: 75.6 mg/dL
  TG: 114.8 mg/dL
  TP: 5.9 g/dL
  gamma-GTP: 2.4 IU/L
[3]
  TERMINAL_BW: 276.3 g
  APTT: 16.4 s
  Bas: 0%
  Eos: 1%
  Fbg: 239.8 mg/dL
  Hb: 14.7 g/dL
  Ht: 44%
  Lym: 79.8%
  MCH: 19.7 pg
  MCHC: 33.3%
  MCV: 59.3 fL
  Mono: 7.6%
  Neu: 11.8%
  PT: 13 s
  Plat: 111.2 x10_4/uL
  RBC: 743.4 x10_4/ul
  Ret: 3.5%
  WBC: 202.6 x10_2/uL
  KIDNEY_L: 1.2 g
  KIDNEY_R: 1.2 g
  KIDNEY_TOTAL: 2.3 g
  LIVER: 12.7 g
  A/G: 2.1
  ALP: 760.2 IU/L
  ALT: 26.2 IU/L
  AST: 47.2 IU/L
  BUN: 20.4 mg/dL
  CRE: 0.6 mg/dL
  Ca: 10.3 mg/dL
  Cl: 104.8 meq/L
  DBIL: 0.05 mg/dL
  GLC: 173.8 mg/dL
  IP: 7.3 mg/dL
  K: 4.8 meq/L
  LDH: 90.2 IU/L
  Na: 134.2 meq/L
  PL: 127 mg/dL
  RALB: 3.9 g/dL
  TBIL: 0.3 mg/dL
  TC: 59.4 mg/dL
  TG: 87.4 mg/dL
  TP: 5.8 g/dL
  gamma-GTP: 1.6 IU/L
[4]
  TERMINAL_BW: 324.2 g
  APTT: 16.6 s
  Bas: 0%
  Eos: 1%
  Fbg: 240.2 mg/dL
  Hb: 15.1 g/dL
  Ht: 44.7%
  Lym: 75.4%
  MCH: 19 pg
  MCHC: 33.9%
  MCV: 56.1 fL
  Mono: 8.6%
  Neu: 14.8%
  PT: 11.9 s
  Plat: 116.1 x10_4/uL
  RBC: 798.6 x10_4/ul
  Ret: 3.2%
  WBC: 149.2 x10_2/uL
  KIDNEY_L: 1.2 g
  KIDNEY_R: 1.2 g
  KIDNEY_TOTAL: 2.4 g
  LIVER: 14.1 g
  A/G: 2
  ALP: 660.6 IU/L
  ALT: 29.8 IU/L
  AST: 35.4 IU/L
  BUN: 20.4 mg/dL
  CRE: 0.6 mg/dL
  Ca: 10 mg/dL
  Cl: 105.4 meq/L
  DBIL: 0.014 mg/dL
  GLC: 164.8 mg/dL
  IP: 6.3 mg/dL
  K: 4.5 meq/L
  LDH: 114.6 IU/L
  Na: 134 meq/L
  PL: 125.4 mg/dL
  RALB: 3.9 g/dL
  TBIL: 0.2 mg/dL
  TC: 60.4 mg/dL
  TG: 62.4 mg/dL
  TP: 5.8 g/dL
  gamma-GTP: 1.6 IU/L
[5]
  TERMINAL_BW: 211.8 g
  APTT: 17.5 s
  Bas: 0%
  Eos: 1.4%
  Fbg: 296 mg/dL
  Hb: 14.4 g/dL
  Ht: 44%
  Lym: 75.4%
  MCH: 20.3 pg
  MCHC: 32.8%
  MCV: 62.1 fL
  Mono: 9.2%
  Neu: 14%
  PT: 12.4 s
  Plat: 112.5 x10_4/uL
  RBC: 711.2 x10_4/ul
  Ret: 4.8%
  WBC: 144.4 x10_2/uL
  KIDNEY_L: 1 g
  KIDNEY_R: 1.1 g
  KIDNEY_TOTAL: 2.1 g
  LIVER: 12.3 g
  A/G: 1.8
  ALP: 923.2 IU/L
  ALT: 47.8 IU/L
  AST: 179.6 IU/L
  BUN: 16.4 mg/dL
  CRE: 0.6 mg/dL
  Ca: 10.9 mg/dL
  Cl: 104.2 meq/L
  DBIL: 0.086 mg/dL
  GLC: 174.8 mg/dL
  IP: 8.1 mg/dL
  K: 5.1 meq/L
  LDH: 338.2 IU/L
  Na: 136 meq/L
  PL: 189.8 mg/dL
  RALB: 3.7 g/dL
  TBIL: 0.3 mg/dL
  TC: 102 mg/dL
  TG: 115.4 mg/dL
  TP: 5.8 g/dL
  gamma-GTP: 2.2 IU/L
[6]
  TERMINAL_BW: 217.5 g
  APTT: 16.5 s
  Bas: 0%
  Eos: 1%
  Fbg: 236 mg/dL
  Hb: 14.7 g/dL
  Ht: 44%
  Lym: 81%
  MCH: 20.1 pg
  MCHC: 33.5%
  MCV: 60 fL
  Mono: 5.6%
  Neu: 12.6%
  PT: 14.3 s
  Plat: 159.2 x10_4/uL
  RBC: 734.2 x10_4/ul
  Ret: 2%
  WBC: 180.4 x10_2/uL
  KIDNEY_L: 1 g
  KIDNEY_R: 1 g
  KIDNEY_TOTAL: 2 g
  LIVER: 11.1 g
  A/G: 1.9
  ALP: 946.4 IU/L
  ALT: 23.4 IU/L
  AST: 47 IU/L
  BUN: 18.4 mg/dL
  CRE: 0.5 mg/dL
  Ca: 10.4 mg/dL
  Cl: 105.4 meq/L
  DBIL: 0.026 mg/dL
  GLC: 164.2 mg/dL
  IP: 7.3 mg/dL
  K: 4.8 meq/L
  LDH: 192.8 IU/L
  Na: 136 meq/L
  PL: 137 mg/dL
  RALB: 3.6 g/dL
  TBIL: 0.2 mg/dL
  TC: 69.8 mg/dL
  TG: 57.2 mg/dL
  TP: 5.5 g/dL
  gamma-GTP: 2 IU/L
[7]
  TERMINAL_BW: 249.4 g
  APTT: 16.7 s
  Bas: 0%
  Eos: 1%
  Fbg: 228.4 mg/dL
  Hb: 14.7 g/dL
  Ht: 43.7%
  Lym: 77.8%
  MCH: 19.7 pg
  MCHC: 33.5%
  MCV: 58.9 fL
  Mono: 5.4%
  Neu: 16.2%
  PT: 14.4 s
  Plat: 123.1 x10_4/uL
  RBC: 742.6 x10_4/ul
  Ret: 2.7%
  WBC: 176.2 x10_2/uL
  KIDNEY_L: 1.2 g
  KIDNEY_R: 1.2 g
  KIDNEY_TOTAL: 2.3 g
  LIVER: 12.4 g
  A/G: 2.3
  ALP: 1052 IU/L
  ALT: 26 IU/L
  AST: 67 IU/L
  BUN: 18.6 mg/dL
  CRE: 0.6 mg/dL
  Ca: 10.2 mg/dL
  Cl: 105 meq/L
  DBIL: 0.08 mg/dL
  GLC: 165.8 mg/dL
  IP: 7.3 mg/dL
  K: 4.3 meq/L
  LDH: 161 IU/L
  Na: 135 meq/L
  PL: 154 mg/dL
  RALB: 3.7 g/dL
  TBIL: 0.3 mg/dL
  TC: 74.4 mg/dL
  TG: 83 mg/dL
  TP: 5.3 g/dL
  gamma-GTP: 2.4 IU/L
[8]
  TERMINAL_BW: 277.2 g
  APTT: 17.6 s
  Bas: 0%
  Eos: 0.6%
  Fbg: 218 mg/dL
  Hb: 15.6 g/dL
  Ht: 45.4%
  Lym: 71.6%
  MCH: 18.8 pg
  MCHC: 34.5%
  MCV: 54.3 fL
  Mono: 6.6%
  Neu: 21%
  PT: 14 s
  Plat: 110.9 x10_4/uL
  RBC: 835.6 x10_4/ul
  Ret: 2.6%
  WBC: 183.8 x10_2/uL
  KIDNEY_L: 1.2 g
  KIDNEY_R: 1.2 g
  KIDNEY_TOTAL: 2.4 g
  LIVER: 14.3 g
  A/G: 1.9
  ALP: 1032 IU/L
  ALT: 31.2 IU/L
  AST: 76 IU/L
  BUN: 20.8 mg/dL
  CRE: 0.6 mg/dL
  Ca: 9.9 mg/dL
  Cl: 106 meq/L
  DBIL: 0.2 mg/dL
  GLC: 148.8 mg/dL
  IP: 6.3 mg/dL
  K: 4.4 meq/L
  LDH: 195.4 IU/L
  Na: 134 meq/L
  PL: 138.4 mg/dL
  RALB: 3.5 g/dL
  TBIL: 0.3 mg/dL
  TC: 61.4 mg/dL
  TG: 20.8 mg/dL
  TP: 5.4 g/dL
  gamma-GTP: 6 IU/L
